This is an account of results in patent publication US7973069B2 (PTC Therapeutics, Inc., priority 2004, dated 2011).

Structures are written as SMILES. Where “and” joins values, the source holds several entries; their conditions need not be identical. Equal values may be shown once.

Usually IC50 stands for the midpoint of a concentration-inhibition curve.

The test system of this assay is HCV replicon. It counts as cell-based.
Turning to `CCCn1c(-c2cccc(N)c2)c(C#N)c2cc(OCc3ccccc3)ccc21` [Compound 866], the IC50 lay in the range of 0.5 to 2 µM. Under `CCCS(=O)(=O)Nc1ccc(-c2c(C#N)c3ccc(OC(F)F)cc3n2C(C)C)cc1` [Compound 867] stands 0.5 to 2 µM; under `CC(C)n1c(-c2ccc(NS(=O)(=O)C3CC3)cc2)c(C#N)c2ccc(OC(F)F)cc21` [Compound 868], under 0.5 µM; under `CCn1c(-c2ccc(N)cc2)c(C#N)c2ccc(OC(F)F)cc21` [Compound 870], 0.5 to 2 µM.

Compound `CCn1c(-c2ccc(NS(=O)(=O)C3CC3)c(F)c2)c(C#N)c2ccc(OC)cc21` [Compound 873] yielded a concentration for half-maximal inhibition (IC50) of over 2 µM.

Consider `CCn1c(-c2ccc(NC(=O)OC)c(F)c2)c(C#N)c2ccc(OC)cc21` [Compound 875], for which the IC50 lay within 0.5 to 2 µM.

`CCOC(=O)Nc1ccc(-c2c(C#N)c3ccc(OC)cc3n2CC)cc1F` [Compound 876]: the IC50 was 0.5 to 2 µM. Regarding `CCn1c(-c2ccc(NC(=O)OC(C)C)c(F)c2)c(C#N)c2ccc(OC)cc21` [Compound 878], the IC50 was in the range of 0.5 to 2 µM. As for `CCn1c(-c2ccc(N)c(F)c2)c(C#N)c2ccc(OC)cc21` [Compound 880], the figure is 0.5 to 2 µM. Under `CCCS(=O)(=O)Nc1ccc(-c2c(C#N)c3ccc(OC(F)(F)F)cc3n2CC)cc1` [Compound 882] stands under 0.5 µM; under `CCn1c(-c2ccc(NS(=O)(=O)C3CC3)cc2)c(C#N)c2ccc(OC(F)(F)F)cc21` [Compound 883], under 0.5 µM; under `CCn1c(-c2ccc(NS(=O)(=O)C(C)C)cc2)c(C#N)c2ccc(OC(F)(F)F)cc21` [Compound 884], under 0.5 µM. As for `CCCCS(=O)(=O)Nc1ccc(-c2c(C#N)c3ccc(OC(F)(F)F)cc3n2CC)cc1` [Compound 885], the figure is under 0.5 µM. For the compound `CCn1c(-c2ccc(NC(=O)OC)cc2)c(C#N)c2ccc(OC(F)(F)F)cc21` [Compound 886], the IC50 fell in the range of 0.5 to 2 µM. As to `CCOC(=O)Nc1ccc(-c2c(C#N)c3ccc(OC(F)(F)F)cc3n2CC)cc1` [Compound 887], the IC50 was 0.5 to 2 µM.

Turning to `CCn1c(-c2ccc(NC(=O)OCCF)cc2)c(C#N)c2ccc(OC(F)(F)F)cc21` [Compound 888], the IC50 was 0.5 to 2 µM. As for `CCCOC(=O)Nc1ccc(-c2c(C#N)c3ccc(OC(F)(F)F)cc3n2CC)cc1` [Compound 889], the figure is 0.5 to 2 µM; as for `COc1ccc2c(C#N)c(-c3ccc(NS(=O)(=O)C4CC4)cc3)n(CC3CCCC3)c2c1` [Compound 890], 0.5 to 2 µM; as for `COc1ccc2c(C#N)c(-c3ccc(NS(=O)(=O)C(C)C)cc3)n(CC3CCCC3)c2c1` [Compound 891], 0.5 to 2 µM.

For the compound `CCNC(=O)Nc1ccc(-c2c(C#N)c3ccc(OC(F)(F)F)cc3n2CC)cc1` [Compound 892], the IC50 was 0.5 to 2 µM.

`CCCCNC(=O)Nc1ccc(-c2c(C#N)c3ccc(OC(F)(F)F)cc3n2CC)cc1` [Compound 894] registered an IC50 of 0.5 to 2 µM.

`CCOc1ccc2c(C#N)c(-c3ccc(NC(C)=O)cc3)n(CC)c2c1` [Compound 895] gave an IC50 of 0.5 to 2 µM. Consider `CCOc1ccc2c(C#N)c(-c3ccc(NC(=O)CC)cc3)n(CC)c2c1` [Compound 896], for which the IC50 fell in the range of 0.5 to 2 µM. As for `CCOc1ccc2c(C#N)c(-c3ccc(NC(=O)C4CC4)cc3)n(CC)c2c1` [Compound 897], the figure is 0.5 to 2 µM. For the compound `CCOc1ccc2c(C#N)c(-c3ccc(NC(=O)C4CCC4)cc3)n(CC)c2c1` [Compound 899], the IC50 fell in the range of 0.5 to 2 µM. `CCOc1ccc2c(C#N)c(-c3ccc(NC(=O)Cc4ccccc4)cc3)n(CC)c2c1` [Compound 900] had an IC50 of 0.5 to 2 µM. `CCOc1ccc2c(C#N)c(-c3ccc(NC(=O)CCc4ccccc4)cc3)n(CC)c2c1` [Compound 901] came in with an IC50 of 0.5 to 2 µM. Turning to `Cn1c(-c2ccc(N3CCCS3(=O)=O)cc2)c(C#N)c2ccc(OC(F)(F)F)cc21` [Compound 902], the IC50 lay within 0.5 to 2 µM. As for `CCCn1c(-c2ccc(N3CCCS3(=O)=O)cc2)c(C#N)c2ccc(OC(F)(F)F)cc21` [Compound 904], the figure is 0.5 to 2 µM; as for `N#Cc1c(-c2ccc(N3CCCS3(=O)=O)cc2)n(CCF)c2cc(OC(F)(F)F)ccc12` [Compound 905], under 0.5 µM; as for `COCCn1c(-c2ccc(N3CCCS3(=O)=O)cc2)c(C#N)c2ccc(OC(F)(F)F)cc21` [Compound 906], 0.5 to 2 µM. `CCOc1ccc2c(C#N)c(-c3cccc(N4CCCS4(=O)=O)c3)n(CC)c2c1` [Compound 907] returned an IC50 of 0.5 to 2 µM. On to `CCn1c(-c2ccc(N3CCCS3(=O)=O)cc2)c(C#N)c2ccc(OCCn3cccn3)cc21` [Compound 908], for which the IC50 lay in the range of 0.5 to 2 µM. `CCNC(=O)Nc1ccc(-c2c(C#N)c3ccc(OC)cc3n2CC)cc1F` [Compound 909] had a half-inhibitory concentration (IC50) of 0.5 to 2 µM. As for `CCCCNC(=O)Nc1ccc(-c2c(C#N)c3ccc(OC)cc3n2CC)cc1F` [Compound 910], the IC50 fell in the range of 0.5 to 2 µM. Under `CCn1c(-c2ccc(NC(=O)NC(C)C)c(F)c2)c(C#N)c2ccc(OC)cc21` [Compound 911] stands 0.5 to 2 µM; under `CCn1c(-c2ccc(NS(=O)(=O)C(C)C)cc2)c(C#N)c2ccc(OCCF)cc21` [Compound 912], 0.5 to 2 µM. In turn, `CCn1c(-c2ccc(NC(C)=O)cc2)c(C#N)c2ccc(OC(F)(F)F)cc21` [Compound 913] gave an IC50 of 0.5 to 2 µM. Under `CCC(=O)Nc1ccc(-c2c(C#N)c3ccc(OC(F)(F)F)cc3n2CC)cc1` [Compound 914] stands 0.5 to 2 µM; under `CCn1c(-c2ccc(NC(=O)C(C)(C)C)cc2)c(C#N)c2ccc(OC(F)(F)F)cc21` [Compound 915], 0.5 to 2 µM; under `CCn1c(-c2ccc(NC(=O)CCc3ccccc3)cc2)c(C#N)c2ccc(OC(F)(F)F)cc21` [Compound 916], 0.5 to 2 µM. Turning to `CCCn1c(-c2cccc(NS(=O)(=O)CC)c2)c(C#N)c2cc(OCc3ccccc3)ccc21` [Compound 919], the IC50 fell in the range of 0.5 to 2 µM. As for `CCCn1c(-c2ccc(NS(C)(=O)=O)cc2)c(C#N)c2ccc(OCc3ccccc3)cc21` [Compound 921], the figure is 0.5 to 2 µM.

The compound `CCCn1c(-c2ccc(NS(=O)(=O)CC)cc2)c(C#N)c2ccc(OCc3ccccc3)cc21` [Compound 922] gave an IC50 of 0.5 to 2 µM. Under `CCCn1c(-c2ccc(NS(=O)(=O)CCC)cc2)c(C#N)c2ccc(OCc3ccccc3)cc21` [Compound 923] stands 0.5 to 2 µM; under `CCCn1c(-c2ccc(NS(=O)(=O)C3CC3)cc2)c(C#N)c2ccc(OCc3ccccc3)cc21` [Compound 924], 0.5 to 2 µM. `CCOC(=O)Nc1ccc(-c2c(C#N)c3cc(OCc4ccccc4)ccc3n2CC)cc1` [Compound 925] showed a concentration for half-maximal inhibition (IC50) of 0.5 to 2 µM. As for `CCCOC(=O)Nc1ccc(-c2c(C#N)c3cc(OCc4ccccc4)ccc3n2CC)cc1` [Compound 926], the figure is 0.5 to 2 µM. As for `CCn1c(-c2ccc(N)c(C)c2)c(C#N)c2ccc(OC)cc21` [Compound 927], the figure is 0.5 to 2 µM; as for `CCn1c(-c2ccc(NS(=O)(=O)C3CC3)cc2)c(C#N)c2ccc(OC(F)F)cc21` [Compound 929], under 0.5 µM. As for `CCn1c(-c2ccc(NS(=O)(=O)CCCCl)cc2)c(C#N)c2ccc(OC(F)F)cc21` [Compound 930], the figure is under 0.5 µM. With `CCCS(=O)(=O)Nc1ccc(-c2c(C#N)c3ccc(OCC)cc3n2C2CCC2)cc1` [Compound 932], the half-inhibitory concentration (IC50) is under 0.5 µM. `CCCS(=O)(=O)Nc1ccc(-c2c(C#N)c3ccc(OCC)cc3n2C2CCC2)cc1` [Compound 933] gave an IC50 of 0.5 to 2 µM. As for `CCOc1ccc2c(C#N)c(-c3ccc(NS(=O)(=O)C4CC4)cc3)n(C3CCC3)c2c1` [Compound 934], the figure is under 0.5 µM; as for `CCOc1ccc2c(C#N)c(-c3ccc(NS(=O)(=O)CCCCl)cc3)n(C3CCC3)c2c1` [Compound 935], < 0.5 µM and 0.5 to 2 µM; as for `CCOc1ccc2c(C#N)c(-c3ccc(NP(=O)(OCC)OCC)cc3)n(C3CCC3)c2c1` [Compound 936], under 0.5 µM. As for `CCOc1ccc2c(C#N)c(-c3ccc(NP(=O)(OC)OC)cc3)n(C3CCC3)c2c1` [Compound 937], the figure is under 0.5 µM; as for `CCOc1ccc2c(C#N)c(-c3ccc(N)cc3)n(C3CCC3)c2c1` [Compound 939], 0.5 to 2 µM. Under `N#Cc1cn(CC2CC2)c2cc(OC(F)F)ccc12` [Compound 940] stands 0.5 to 2 µM; under `CC(C)S(=O)(=O)Nc1ccc(-c2c(C#N)c3ccc(OC(F)F)cc3n2CC2CC2)cc1` [Compound 941], under 0.5 µM. The compound `CCOc1ccc2c(C#N)c(-c3ccc(NP(=O)(OC)OC)cc3)n(CC)c2c1` [Compound 942] had an IC50 of 0.5 to 2 µM. Under `CCOP(=O)(Nc1ccc(-c2c(C#N)c3ccc(OC)cc3n2CC)cc1)OCC` [Compound 943] stands 0.5 to 2 µM. Turning to `CCn1c(-c2ccc(NP(=O)(OC)OC)cc2)c(C#N)c2ccc(OC)cc21` [Compound 944], the IC50 lay within 0.5 to 2 µM. Under `CCn1c(-c2ccc(NC(=O)OCCF)cc2)c(C#N)c2ccc(OCCF)cc21` [Compound 945] stands 0.5 to 2 µM; under `CCn1c(-c2ccc(NC(=O)OC(C)C)cc2)c(C#N)c2ccc(OCCF)cc21` [Compound 946], under 0.5 µM. As for `CCn1c(-c2ccc(NC(=O)OCC(C)C)cc2)c(C#N)c2ccc(OCCF)cc21` [Compound 947], the figure is under 0.5 µM. As to `CCn1c(-c2ccc(NC(=O)OCc3ccccc3)cc2)c(C#N)c2ccc(OCCF)cc21` [Compound 948], the IC50 was under 0.5 µM. For `CCCOC(=O)Nc1ccc(-c2c(C#N)c3ccc(OCC)cc3n2CC)cc1` [Compound 949], the IC50 lay within 0.5 to 2 µM. On to `CCOc1ccc2c(C#N)c(-c3ccc(NC(=O)OCCF)cc3)n(CC)c2c1` [Compound 950], for which the IC50 lay within 0.5 to 2 µM.

On to `CCCCNC(=O)Nc1ccc(-c2c(C#N)c3ccc(OCC)cc3n2CC)cc1` [Compound 951], for which the half-inhibitory concentration (IC50) fell in the range of 0.5 to 2 µM.

Compound `CCn1c(-c2ccc(NC(=O)C3CC3)cc2)c(C#N)c2ccc(OCCN3CCN(C)CC3)cc21` [Compound 952] displayed an IC50 of 0.5 to 2 µM. Consider `CCCCS(=O)(=O)Nc1ccc(-c2c(C#N)c3ccc(OCCF)cc3n2CC)cc1` [Compound 953], for which the IC50 is 0.5 to 2 µM.

Take `CCNC(=O)Nc1ccc(-c2c(C#N)c3ccc(OCCF)cc3n2CC)cc1` [Compound 954]: the IC50 is 0.5 to 2 µM. As for `CCCNC(=O)Nc1ccc(-c2c(C#N)c3ccc(OCCF)cc3n2CC)cc1` [Compound 955], the figure is 0.5 to 2 µM and < 0.5 µM.
